Assay results: patent US9155795B2, “CXCR4 receptor compounds” (Anchor Therapeutics, Inc., priority 2010, dated 2015)
Where a SMILES comes first, the peptide text is derived from it. [ ]: non-standard residue; d: D form. The star is where a group is joined. Palmitoyl = CCCCCCCCCCCCCCCC(=O)*; Hyp = O=C(O)[C@@H]1C[C@@H](O)CN1; X1 = CCCCCCCCCCCCOCCC(=O)*; hSer = N[C@@H](CCO)C(=O)O; Pra = C#CC[C@H](N)C(=O)O; Dap = NC[C@H](N)C(=O)O

Biological target: T1, CXCR4 (Homo sapiens, UniProt P61073)
T1 construct: CCRF-CEM cells, a human T-cell ALL line that endogenously expresses CXCR4; endogenous in cells; host or cells: CCRF-CEM (human T-cell acute lymphoblastic leukemia line)
Test: Calcium flux assay, agonist mode, Flexstation (CCRF-CEM cells)
Assay type: cell-based
Conditions: CCRF-CEM, percent of maximum response compared with SDF-1α, read-out: % Intrinsic Activity
From the text: Calcium Flux Assay is one of the most popular cell-based GPCR functional assays. It most often uses calcium sensing fluorescent dyes such as fura2 AM, fluo-4 and Calcium-4 to measure changes in intracellular calcium concentration. It is used mainly to detect GPCR signaling via Gαq subunit. Activation of these Gq-coupled GPCRs leads to activation of phospholipase C, which subsequently leads to increase in inositol phosphate production. IP3 receptors on endoplasmic reticulum sense the change then release calcium into cytoplasm. Intracellular calcium binding to the fluorescent dyes can be detected by instruments that quantify fluorescent intensities, such as FLIPR Tetra, Flexstation (MDS) and FDSS (Hamamatsu). In addition, to assess Gq-couple receptor signaling, a calcium flux assay can also be used to study Gs and Gi couple receptors by co-expressing CNG (cyclic nucleotide gated calcium channel) or chimeric G-proteins (Gqi5, Gsi5 for example). Activation of some Gi-coupled receptors can also be detected by calcium flux assay via Gβγ mediated phospholipase C activation.
The calcium flux assay was used to assess the test compounds' ability to activate the CXCR4 receptor in CCRF-CEM cells (human T lymphoblasts from acute lymphoblastic leukemia). […] After dye loading by incubating with Calcium-4 dye at 37° C. for 1 hour, cell plates were read at 37° C. using the using the Flexstation 3 workstation. Receptor activation was assessed by measuring changes in fluorescent intensity after the addition of the test compounds or the reference agonist SDF-1α on the using the Flexstation 3 workstation. EC50
and percent intrinsic actively were derived from the data collected. Intrinsic activity refers to the efficacy of the test compound and is calculated as the percent of maximum response compared with the response of the reference standard (i.e., natural agonist, SDF-1α).

T1 sequence (P61073 whole entry): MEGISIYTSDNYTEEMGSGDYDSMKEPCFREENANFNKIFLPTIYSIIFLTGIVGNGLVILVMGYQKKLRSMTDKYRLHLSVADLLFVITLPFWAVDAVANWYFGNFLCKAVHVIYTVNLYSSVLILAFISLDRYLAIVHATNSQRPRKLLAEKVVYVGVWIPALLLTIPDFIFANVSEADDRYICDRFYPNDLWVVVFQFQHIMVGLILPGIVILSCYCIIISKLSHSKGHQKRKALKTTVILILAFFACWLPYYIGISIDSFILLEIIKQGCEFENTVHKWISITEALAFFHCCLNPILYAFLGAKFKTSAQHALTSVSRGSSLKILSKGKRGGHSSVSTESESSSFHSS

Emax | Compound
95.3% | CCCCCCCCCCCCCCCC(=O)N[C@@H](CS)C(=O)NCC(=O)N[C@@H](Cc1ccc(O)cc1)C(=O)N[C@@H](CCC(N)=O)C(=O)N[C@@H](CCCCN)C(=O)N[C@@H](CCCCN)C(=O)N[C@@H](CC(C)C)C(=O)N[C@@H](CCCNC(=N)N)C(=O)N[C@@H](CO)C(=O)N[C@@H](C)C(=O)N[C@H](C(=O)N[C@@H](CC(=O)O)C(=O)N[C@@H](CCCCN)C(=O)N[C@@H](Cc1ccc(O)cc1)C(=O)N[C@@H](CCCNC(=N)N)C(=O)N[C@@H](CC(C)C)C(N)=O)[C@@H](C)O [Compound 30] (Palmitoyl-CGYQKKLRSATDKYRL-NH2; C-terminus assumed)
84.2% | CCCCCCCCCCCCOCCC(=O)NCC(=O)NCC(=O)N[C@@H](Cc1ccc(O)cc1)C(=O)N[C@@H](CCC(N)=O)C(=O)N[C@@H](CCCCN)C(=O)N[C@@H](CCCCN)C(=O)N[C@@H](CC(C)C)C(=O)N[C@@H](CCCNC(=N)N)C(=O)N[C@@H](CO)C(=O)N[C@@H](C)C(=O)N[C@H](C(=O)N[C@@H](CC(=O)O)C(=O)N[C@@H](CCCCN)C(=O)N[C@@H](Cc1ccc(O)cc1)C(=O)N[C@@H](CCCNC(=N)N)C(=O)N[C@@H](CC(C)C)C(N)=O)[C@@H](C)O [Compound 31] (X1-GGYQKKLRSATDKYRL-NH2; C-terminus assumed)
91.1% | CCCCCCCCCCCCCCCC(=O)NCC(=O)NCC(=O)N[C@@H](Cc1ccc(O)cc1)C(=O)N[C@@H](CCC(N)=O)C(=O)N[C@@H](CCCCN)C(=O)N[C@@H](CCCCN)C(=O)N[C@@H](CC(C)C)C(=O)N[C@@H](CCCNC(=N)N)C(=O)N1CCC[C@@H]1C(=O)N1CCC[C@@H]1C(=O)N[C@@H](Cc1c[nH]cn1)C(=O)N[C@H](C(=O)N[C@@H](CC(=O)O)C(=O)N[C@@H](CCCCN)C(=O)N[C@@H](Cc1ccc(O)cc1)C(=O)N[C@@H](CCCNC(=N)N)C(=O)N[C@@H](CC(C)C)C(N)=O)[C@@H](C)O [Compound 32] (Palmitoyl-GGYQKKLR[dP][dP]HTDKYRL-NH2; C-terminus assumed)
93% | CCCCCCCCCCCCCCCC(=O)NCC(=O)NCC(=O)N[C@@H](Cc1ccc(O)cc1)C(=O)N[C@@H](CCC(N)=O)C(=O)N[C@@H](CCCCN)C(=O)N[C@@H](CCCCN)C(=O)N[C@@H](CC(C)C)C(=O)N[C@@H](CCCNC(=N)N)C(=O)N1CCC[C@@H]1C(=O)N[C@@H](Cc1c[nH]c2ccccc12)C(=O)N[C@H](C(=O)N[C@@H](CC(=O)O)C(=O)N[C@@H](CCCCN)C(=O)N[C@@H](Cc1ccc(O)cc1)C(=O)N[C@@H](CCCNC(=N)N)C(=O)N[C@@H](CC(C)C)C(N)=O)[C@@H](C)O [Compound 33] (Palmitoyl-GGYQKKLR[dP]WTDKYRL-NH2; C-terminus assumed)
103% | CCCCCCCCCCCCCCCC(=O)NCC(=O)NCC(=O)N[C@@H](Cc1ccc(O)cc1)C(=O)N[C@@H](CCC(N)=O)C(=O)N[C@@H](CCCCN)C(=O)N[C@@H](CCCCN)C(=O)N[C@@H](CC(C)C)C(=O)N[C@@H](CCCNC(=N)N)C(=O)N1CCC[C@@H]1C(=O)N[C@@H](CN)C(=O)N[C@H](C(=O)N[C@@H](CC(=O)O)C(=O)N[C@@H](CCCCN)C(=O)N[C@@H](Cc1ccc(O)cc1)C(=O)N[C@@H](CCCNC(=N)N)C(=O)N[C@@H](CC(C)C)C(N)=O)[C@@H](C)O [Compound 34] (Palmitoyl-GGYQKKLR[dP][Dap]TDKYRL-NH2; C-terminus assumed)
89.4% | CCCCCCCCCCCCCCCC(=O)NCC(=O)NCC(=O)N[C@@H](Cc1ccc(O)cc1)C(=O)N[C@@H](CCC(N)=O)C(=O)N[C@@H](CCCCN)C(=O)N[C@@H](CCCCN)C(=O)N[C@@H](CC(C)C)C(=O)N[C@@H](CCCNC(=N)N)C(=O)N1C[C@H](O)C[C@H]1C(=O)N[C@@H](Cc1c[nH]cn1)C(=O)N[C@H](C(=O)N[C@@H](CC(=O)O)C(=O)N[C@@H](CCCCN)C(=O)N[C@@H](Cc1ccc(O)cc1)C(=O)N[C@@H](CCCNC(=N)N)C(=O)N[C@@H](CC(C)C)C(N)=O)[C@@H](C)O [Compound 35] (Palmitoyl-GGYQKKLR[Hyp]HTDKYRL-NH2; C-terminus assumed)
55.2% | CCCCCCCCCCCCCCCC(=O)NCC(=O)NCC(=O)N[C@@H](Cc1ccc(O)cc1)C(=O)N[C@@H](CCC(N)=O)C(=O)N[C@@H](CCCCN)C(=O)N[C@@H](CCCCN)C(=O)N[C@@H](CC(C)C)C(=O)N[C@@H](CCCNC(=N)N)C(=O)N1CCC[C@@H]1C(=O)N1C[C@H](O)C[C@H]1C(=O)N[C@H](C(=O)N[C@@H](CC(=O)O)C(=O)N[C@@H](CCCCN)C(=O)N[C@@H](Cc1ccc(O)cc1)C(=O)N[C@@H](CCCNC(=N)N)C(=O)N[C@@H](CC(C)C)C(N)=O)[C@@H](C)O [Compound 36] (Palmitoyl-GGYQKKLR[dP][Hyp]TDKYRL-NH2; C-terminus assumed)

Continued, molecule first:

Compound | Emax
CCCCCCCCCCCCCCCC(=O)N[C@@H](CCOC)C(=O)NCC(=O)N[C@@H](Cc1ccc(O)cc1)C(=O)N[C@@H](CCC(N)=O)C(=O)N[C@@H](CCCCN)C(=O)N[C@@H](CCCCN)C(=O)N[C@@H](CC(C)C)C(=O)N[C@@H](CCCNC(=N)N)C(=O)N[C@@H](CO)C(=O)N[C@@H](CCOC)C(=O)N[C@H](C(=O)N[C@@H](CC(=O)O)C(=O)N[C@@H](CCCCN)C(=O)N[C@@H](Cc1ccc(O)cc1)C(=O)N[C@@H](CCCNC(=N)N)C(=O)N[C@@H](CC(C)C)C(N)=O)[C@@H](C)O [Compound 22] (Palmitoyl-[hSer](Me)GYQKKLRS[hSer](Me)TDKYRL-NH2) | 77.7%
CCCCCCCCCCCCCCCC(=O)N[C@@H](COC)C(=O)NCC(=O)N[C@@H](Cc1ccc(O)cc1)C(=O)N[C@@H](CCC(N)=O)C(=O)N[C@@H](CCCCN)C(=O)N[C@@H](CCCCN)C(=O)N[C@@H](CC(C)C)C(=O)N[C@@H](CCCNC(=N)N)C(=O)N[C@@H](CO)C(=O)N[C@@H](COC)C(=O)N[C@H](C(=O)N[C@@H](CC(=O)O)C(=O)N[C@@H](CCCCN)C(=O)N[C@@H](Cc1ccc(O)cc1)C(=O)N[C@@H](CCCNC(=N)N)C(=O)N[C@@H](CC(C)C)C(N)=O)[C@@H](C)O [Compound 23] (Palmitoyl-S(Me)GYQKKLRSS(Me)TDKYRL-NH2) | 87.2%
C#CC[C@H](NC(=O)CCCCCCCCCCCCCCC)C(=O)NCC(=O)N[C@@H](Cc1ccc(O)cc1)C(=O)N[C@@H](CCC(N)=O)C(=O)N[C@@H](CCCCN)C(=O)N[C@@H](CCCCN)C(=O)N[C@@H](CC(C)C)C(=O)N[C@@H](CCCNC(=N)N)C(=O)N[C@@H](CO)C(=O)N[C@@H](CCSC)C(=O)N[C@H](C(=O)N[C@@H](CC(=O)O)C(=O)N[C@@H](CCCCN)C(=O)N[C@@H](Cc1ccc(O)cc1)C(=O)N[C@@H](CCCNC(=N)N)C(=O)N[C@@H](CC(C)C)C(N)=O)[C@@H](C)O [Compound 24] (Palmitoyl-[Pra]GYQKKLRSMTDKYRL-NH2; C-terminus assumed) | 76.6%
CCCCCCCCCCCCCCCC(=O)NCC(=O)NCC(=O)N[C@@H](Cc1ccc(O)cc1)C(=O)N[C@@H](CCC(N)=O)C(=O)N[C@@H](CCCCN)C(=O)N[C@@H](CCCCN)C(=O)N[C@@H](CC(C)C)C(=O)N[C@@H](CCCNC(=N)N)C(=O)N[C@@H](CO)C(=O)N[C@@H](C)C(=O)N[C@H](C(=O)N[C@@H](CC(=O)O)C(=O)N[C@@H](CCCCN)C(=O)N[C@@H](Cc1ccc(O)cc1)C(=O)N[C@@H](CCCNC(=N)N)C(=O)N[C@@H](CC(C)C)C(N)=O)[C@@H](C)O [Compound 25] (Palmitoyl-GGYQKKLRSATDKYRL-NH2; C-terminus assumed) | 89.4%
CCCCCCCCCCCCCCCC(=O)NCC(=O)NCC(=O)N[C@@H](Cc1ccc(O)cc1)C(=O)N[C@@H](CCC(N)=O)C(=O)N[C@@H](CCCCN)C(=O)N[C@@H](CCCCN)C(=O)N[C@@H](CC(C)C)C(=O)N[C@@H](CCCNC(=N)N)C(=O)N1CCC[C@@H]1C(=O)N[C@@H](C)C(=O)N[C@H](C(=O)N[C@@H](CC(=O)O)C(=O)N[C@@H](CCCCN)C(=O)N[C@@H](Cc1ccc(O)cc1)C(=O)N[C@@H](CCCNC(=N)N)C(=O)N[C@@H](CC(C)C)C(N)=O)[C@@H](C)O [Compound 27] (Palmitoyl-GGYQKKLR[dP]ATDKYRL-NH2; C-terminus assumed) | 111%
CCCCCCCCCCCCCCCC(=O)NCC(=O)NCC(=O)N[C@@H](Cc1ccc(O)cc1)C(=O)N[C@@H](CCC(N)=O)C(=O)N[C@@H](CCCCN)C(=O)N[C@@H](CCCCN)C(=O)N1CCC[C@@H]1C(=O)N[C@@H](CCCNC(=N)N)C(=O)N1CCC[C@@H]1C(=O)N[C@@H](C)C(=O)N[C@H](C(=O)N[C@@H](CC(=O)O)C(=O)N[C@@H](CCCCN)C(=O)N[C@@H](Cc1ccc(O)cc1)C(=O)N[C@@H](CCCNC(=N)N)C(=O)N[C@@H](CC(C)C)C(N)=O)[C@@H](C)O [Compound 28] (Palmitoyl-GGYQKK[dP]R[dP]ATDKYRL-NH2; C-terminus assumed) | 107%
CCCCCCCCCCCCCCCC(=O)NCC(=O)NCC(=O)N[C@@H](Cc1ccc(O)cc1)C(=O)N[C@@H](CCC(N)=O)C(=O)N[C@@H](CCCCN)C(=O)N[C@@H](CCCCN)C(=O)N[C@@H](CC(C)C)C(=O)N[C@@H](CCCNC(=N)N)C(=O)N1CCC[C@@H]1C(=O)N[C@@H](C)C(=O)N[C@H](C(=O)N[C@@H](CC(=O)O)C(=O)N[C@@H](CCCCN)C(=O)N[C@@H](Cc1ccccc1)C(=O)N[C@@H](CCCNC(=N)N)C(=O)N[C@@H](CC(C)C)C(N)=O)[C@@H](C)O [Compound 29] (Palmitoyl-GGYQKKLR[dP]ATDKFRL-NH2; C-terminus assumed) | 88.9%
